Here are results for ten compounds from patent publication US8389509B2, “Substituted pyrazole compounds” (Bristol-Myers Squibb Company, priority 2009, dated 2013).

Structures can show the parent of a compound that is named as a salt.

In one experiment the target is S1P3 (Homo sapiens, UniProt Q99500). As to the kind of experiment: Method B: Receptor [35S] GTPγS SPA Binding Assay, S1P3. The settings on record: S1P3 transfected CHO cell membranes. On the set-up: expressed in transfected cells; host or cells: CHO cells. It is filed as biochemical. Here is the method:
(§1) Method B: Receptor [^35S] GTPγS SPA Binding Assays
(§2) Membranes prepared from S1P1 or S1P3 transfected CHO cells (2 μg protein) were incubated in 96-well white plates (CORNING® 3693) with test compounds diluted in DMSO, in 50 μl of reaction mixture containing 7.5 μA WGA-PVT beads (20 mg/ml), and 5 μM GDP, 20 mM HEPES pH 7.4, 100 mM NaCl, 1 mM EDTA, 5 mM MgCl2, 10 μg/ml saponin, 0.1% BSA, and 1 μM leupeptin. The assay was initiated with the addition of […] of 0.2 nM [^35S]-GTPγS (1250 Ci/mmol; NEN) in assay buffer. After 90 min incubation at room temperature, spin the plate at 1000 rpm for 5 min. The bound radionuclides were measured at TOPCOUNT®, expressed as % response relative to S1P (1 μM) activation. Data was analyzed using the four parameter logistic equation in Excel. The four parameters in the equation, Y=A+((B−A)/(1+((EC50/X)^D))), are described as following: A is the Y value (agonist activity) at the bottom plateau; B is the Y value at the top plateau; EC50 is the X value (agonist concentration) when the response is halfway between bottom and top; D is Hill coefficient. Curves were not generated for compounds having Ymax values were below 50%.
(§3) Compounds of the present invention and Comparative Compound A were tested in the Receptor [^35S] GTPγS Binding Assays (Method A) and Receptor [^35S] In some instances, the value is an average of multiple experiments where N is the number of experiments conducted that provided satisfactory dose response curves. When more than one batch of an example was tested, the value presented is from a batch which allowed a comparison of GTPγS S1P1 and GTPγS S1P3 in which the most number of experiments were performed. Preferably, the same batch was examined in Method A and Method B. Data was not averaged across different batches of an example compound.
Background: GTPγS is a poorly hydrolysed GTP analogue; its binding reports G protein activation.

The target in experiment [1] is T1, S1P1 (Homo sapiens, UniProt P21453).
T1 construct: expressed in transfected cells; host or cells: CHO cells
T1 sequence (P21453 whole entry): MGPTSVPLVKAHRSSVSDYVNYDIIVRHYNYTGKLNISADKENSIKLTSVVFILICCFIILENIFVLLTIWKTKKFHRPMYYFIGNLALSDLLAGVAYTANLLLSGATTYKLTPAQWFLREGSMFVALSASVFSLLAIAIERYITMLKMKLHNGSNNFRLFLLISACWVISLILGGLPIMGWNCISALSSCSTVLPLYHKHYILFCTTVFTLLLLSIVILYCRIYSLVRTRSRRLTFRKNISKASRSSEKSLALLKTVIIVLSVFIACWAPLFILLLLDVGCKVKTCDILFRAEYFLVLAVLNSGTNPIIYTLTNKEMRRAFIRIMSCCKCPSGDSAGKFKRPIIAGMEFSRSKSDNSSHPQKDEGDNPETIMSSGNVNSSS
In words: Method B: Receptor [35S] GTPγS SPA Binding Assay, S1P1. It is filed as biochemical. As to conditions: for EC50: Method B (SPA), S1P1 transfected CHO cell membranes; for GTPγS S1P3/S1P1 (Method B): ratio of S1P3 EC50 to S1P1 EC50, Method B. Here is the method:
as §1, §2, §3

In experiment [2] the target is T1, S1P1. In words: S1P1 Binding Assay (33P-S1P competition, CHO membranes). As to conditions: membranes of CHO cells expressing human S1P1, 33P-S1P ligand; read-out: S1P1 B IC50. Here is the method:
Membranes were prepared from CHO cells expressing human S1P1. Cells were dissociated in buffer containing 20 mM HEPES, pH 7.5, 50 mM NaCl, 2 mM EDTA and Protease Inhibitor cocktail (Roche), and disrupted on ice using the Polytron homogenizer. The homogenate was centrifuged at 20,000 rpm (48,000 g) and the supernatant was discarded. The membrane pellets were resuspended in buffer containing 50 mM HEPES, pH 7.5, 100 mM NaCl, 1 mM MgCl2, 2 mM EDTA and stored in aliquots at −80° C. after protein concentration determination.
Membranes (2 μg/well) and 0.03 nM final concentration of ^33P-S1P ligand (1 mCi/ml, American Radiolabeled Chemicals) were added to the compound plates. Binding was performed for 60 min at room temperature, terminated by collecting the membranes onto GF/B filter plates, and radioactivity was measured by TOPCOUNT®. The competition data of the test compounds over a range of concentrations was plotted as percentage inhibition of radioligand specific binding. The IC50 is defined as the concentration of competing ligand needed to reduce specific binding by 50%.
Compounds of the present invention and Comparative Compound A were tested in the S1P1 binding assay described hereinabove and the results rounded to two digits, shown in Table A were obtained. In some instances, the value is an average of multiple experiments where N is the number of experiments conducted that provided satisfactory dose response curves. When more than one batch of an example was tested, the value presented is from the batch which allowed a comparison of GTPγS S1P1 and GTPγS S1P3 in Method A (Data shown in Table B). Data was not averaged across different batches of an example compound.

For experiment [3], the target named is T1, S1P1. As to the kind of experiment: Method A: Receptor [35S] GTPγS Binding Assay, S1P1. It is filed as biochemical. The settings on record: ratio of S1P3 EC50 to S1P1 EC50, Method A. Here is the method: Method A: Receptor [35S] GTPγS Binding Assays
Compounds were loaded in a 384 FALCON® v-bottom plate (0.5 μl/well in a 3-fold dilution). Membranes prepared from S1P1/CHO cells or EDG3-Gal5-bla HEK293T cells were added to the compound plate (40 μl/well, final protein 3 μg/well) with MULTIDROP®. [^35S]GTP (1250 Ci/mmol, Perkin Elmer) was diluted in assay buffer: 20 mM HEPES, pH7.5, 10 mM MgCl2, 150 mM NaCl, 1 mM EGTA, 1 mM DTT, 10 μM GDP, 0.1% fatty acid free BSA, and 10 μg/ml Saponin to 0.4 nM. 40 μl of the [^35S] GTP solution was added to the compound plate with a final concentration of 0.2 nM. The reaction was kept at room temperature for 45 min. At the end of incubation, all the mixtures in the compound plate were transferred to a 384 well FB filter plates via GPCR robot system. The filter plate was washed with water 4 times by using the modified manifold Embla plate washer and dried at 60° C. for 45 min. 30 μA of MicroScint 20 scintillation fluid was added to each well for counting at Packard TOPCOUNT®. EC50 is defined as the agonist concentration that corresponds to 50% of the Ymax (maximal response) obtained for each individual compound tested.
as §3

S1P3, sequence (Q99500 whole entry): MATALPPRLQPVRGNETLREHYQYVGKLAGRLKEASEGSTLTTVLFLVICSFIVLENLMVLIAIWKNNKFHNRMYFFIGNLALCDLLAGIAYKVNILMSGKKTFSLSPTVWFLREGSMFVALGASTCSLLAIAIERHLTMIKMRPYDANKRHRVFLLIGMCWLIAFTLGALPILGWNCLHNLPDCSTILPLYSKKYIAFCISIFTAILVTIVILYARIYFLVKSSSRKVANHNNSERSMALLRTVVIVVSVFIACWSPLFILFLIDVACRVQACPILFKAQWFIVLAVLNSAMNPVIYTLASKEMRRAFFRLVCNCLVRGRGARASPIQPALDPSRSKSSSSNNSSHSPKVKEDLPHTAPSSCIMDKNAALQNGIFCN

As a reminder, the EC50 is the concentration at which the effect is half-maximal. Lower therefore signals greater potency. `O=C(O)C1CN(Cc2ccc(-c3noc(-c4cnn(-c5ccccc5)c4Cl)n3)cc2)C1` [Example 11, 1-(4-(5-(5-chloro-1-phenyl-1H-pyrazol-4-yl)-1,2,4-oxadiazol-3-yl)benzyl)azetidine-3-carboxylic acid] came in with a half-maximal effective concentration (EC50) at S1P3 of 2000 nM. At S1P1 [1], the midpoint of the response, the EC50, lay at 1.9 nM and the “GTPγS S1P3/S1P1 (Method B)” value is listed as 1,100.

A word on the IC50: it is the concentration that gives 50% inhibition. With `O=C(O)C1CN(Cc2ccc(-c3noc(-c4cnn(-c5ccccn5)c4-c4ccccc4)n3)cc2)C1` [Example 10, 1-(4-(5-(5-phenyl-1-(pyridin-2-yl)-1H-pyrazol-4-yl)-1,2,4-oxadiazol-3-yl)benzyl)azetidine-3-carboxylic acid], on S1P3, the EC50 worked out at 1100 nM. Also, at S1P1 [1], a half-maximal effect (EC50) was put at 0.42 nM and the “GTPγS S1P3/S1P1 (Method B)” value is listed as 2,600. Moreover, the IC50 at S1P1 [2] turned out to be 1.1 nM.

Turning to `O=C(O)C1CN(Cc2ccc(-c3noc(-c4cc(-c5ccccc5)c(C(F)(F)F)s4)n3)cc2)C1` [Comp. A, 1-(4-(5-(4-phenyl-5-(trifluoromethyl)thiophen-2-yl)-1,2,4-oxadiazol-3-yl)benzyl)-azetidine-3-carboxylic acid, reference compound], on S1P1 [3], the “GTPγS S1P3/S1P1 (Method A)” value was 1.2. The “GTPγS S1P3/S1P1 (Method B)” value at S1P1 [1] is 78.

On to `O=C(O)C1CN(Cc2ccc(-c3noc(-c4cnn(-c5ccccc5)c4Br)n3)cc2)C1` [Example 14, 1-(4-(5-(5-Bromo-1-phenyl-1H-pyrazol-4-yl)-1,2,4-oxadiazol-3-yl)benzyl)azetidine-3-carboxylic acid, 2,2,2-trifluoroacetic acid salt], for which the figures for the EC50 at S1P3 and on S1P1 [1] were 7100 nM and 2.1 nM, respectively. At S1P1 [1], the “GTPγS S1P3/S1P1 (Method B)” value is on record as 3,400. The IC50 at S1P1 [2] was found to be 0.98 nM.

Regarding `CCCCNc1c(-c2nc(-c3ccc(CN4CC(C(=O)O)C4)cc3)no2)cnn1-c1ccccc1` [Example 13, 1-(4-(5-(5-(n-butylamino)-1-phenyl-1H-pyrazol-4-yl)-1,2,4-oxadiazol-3-yl)benzyl)azetidine-3-carboxylic acid], the midpoint of the response at S1P3, the EC50, lay at 51 nM. On S1P1 [1], a half-maximal effect (EC50) was put at 0.17 nM and the “GTPγS S1P3/S1P1 (Method B)” value is recorded as 300. The IC50 on S1P1 [2] came to 3.1 nM.

Turning to `CC(C)Nc1c(-c2nc(-c3ccc(CN4CC(C(=O)O)C4)cc3)no2)cnn1-c1ccccc1` [Example 3, 1-(4-(5-(5-(isopropylamino)-1-phenyl-1H-pyrazol-4-yl)-1,2,4-oxadiazol-3-yl)benzyl)azetidine-3-carboxylic acid], the EC50 at S1P3 is 1700 nM. Besides, on S1P1 [1], the EC50 was determined as 0.15 nM and the “GTPγS S1P3/S1P1 (Method B)” value is 11,000. Moreover, on S1P1 [2], the IC50 came to 0.48 nM.

In the case of `Cc1c(-c2nc(-c3ccc(CN4CC(C(=O)O)C4)cc3)no2)cnn1C1CCCCC1` [Example 9, 1-(4-(5-(1-cyclohexyl-5-methyl-1H-pyrazol-4-yl)-1,2,4-oxadiazol-3-yl)benzyl)azetidine-3-carboxylic acid], a half-maximal effect on S1P3 (EC50) was put at 710 nM. At S1P1 [1], the EC50 stood at 1.3 nM and the “GTPγS S1P3/S1P1 (Method B)” value turned out to be 550.

`O=C(O)C1CN(Cc2ccc(-c3noc(-c4cnn(-c5ccccn5)c4C4CCCC4)n3)cc2)C1` [Example 7, 1-(4-(5-(5-cyclopentyl-1-(pyridin-2-yl)-1H-pyrazol-4-yl)-1,2,4-oxadiazol-3-yl)benzyl)azetidine-3-carboxylic acid] showed an EC50 on S1P3 of 220 nM. On S1P1 [1], the EC50 worked out at 0.087 nM and the “GTPγS S1P3/S1P1 (Method B)” value is given as 2,500. Also, the IC50 on S1P1 [2] came out at 0.19 nM.

Compound `CC(C)CNc1c(-c2nc(-c3ccc(CN4CC(C(=O)O)C4)cc3)no2)cnn1-c1ccccc1` [Example 12, 1-(4-(5-(5-(Isobutylamino)-1-phenyl-1H-pyrazol-4-yl)-1,2,4-oxadiazol-3-yl)benzyl)azetidine-3-carboxylic acid] displayed an EC50 on S1P3 of 9800 nM. On S1P1 [1], the EC50 turned out to be 0.28 nM and the “GTPγS S1P3/S1P1 (Method B)” value is listed as 35,000. Further, the IC50 on S1P1 [2] was 1.7 nM.

In the case of `CCNc1c(-c2nc(-c3ccc(CN4CC(C(=O)O)C4)cc3)no2)cnn1-c1ccccc1` [Example 4, 1-(4-(5-(5-(ethylamino)-1-phenyl-1H-pyrazol-4-yl)-1,2,4-oxadiazol-3-yl)benzyl)azetidine-3-carboxylic acid], a half-maximal response at S1P3 (EC50) required 400 nM. Further, at S1P1 [1], the EC50 was 0.19 nM and the “GTPγS S1P3/S1P1 (Method B)” value is 2,100. Also, the IC50 at S1P1 [2] was 1.1 nM.
